Measurements as given in BindingDB's records for doi:10.1021/jm00157a018 (1987).
Residues, ends and D or L forms follow the SMILES beside them. *: point of attachment. X2 = O=C(N/N=C1/CC[C@@]2(O)[C@H]3Cc4ccc(O)c5c4[C@@]2(CCN3CC2CC2)[C@H]1O5)*; X1 = CN1CC[C@]23c4c5ccc(O)c4O[C@H]2/C(=N\NC(=O)*)CC[C@@]3(O)[C@H]1C5

target: Mu-type opioid receptor (Cavia porcellus, UniProt P97266); experiment: ChEBML_145291
Sequence (P97266 whole entry): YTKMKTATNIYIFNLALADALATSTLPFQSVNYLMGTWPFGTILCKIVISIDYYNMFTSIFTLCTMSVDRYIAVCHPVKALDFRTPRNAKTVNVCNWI

Compound	Ki [nM]
CN1CCC23c4c5ccc(O)c4O[C@H]2C(=NNC(N)=O)CC[C@@]3(O)C1C5 (stereo partly drawn)	15

target: not listed separately; experiment: Binding affinity against Opioid receptor delta 1 of guinea pig brain membranes using 1 nM of [3H]DADLE as radioligand

Compound	Ki [nM]
NC(=O)NN=C1CC[C@@]2(O)C3Cc4ccc(O)c5c4C2(CCN3CC2CC2)[C@H]1O5 (stereo partly drawn)	3.7
CC[C@H](C)[C@H](NC(=O)[C@H](CCCNC(=N)N)NC(=O)[C@H](CCCNC(=N)N)NC(=O)[C@H](CC(C)C)NC(=O)[C@H](Cc1ccccc1)NC(=O)CNC(=O)CNC(=O)[C@@H](N)Cc1ccc(O)cc1)C(=O)OC	50
CC(C)CC(NC(=O)C(Cc1ccccc1)NC(=O)NN=C1CC[C@@]2(O)C3Cc4ccc(O)c5c4C2(CCN3C)[C@H]1O5)C(=O)O (stereo partly drawn)	6.5
CN1CCC23c4c5ccc(O)c4O[C@H]2C(=NNC(N)=O)CC[C@@]3(O)C1C5 (stereo partly drawn)	69
CC(C)CC(NC(=O)C(Cc1ccccc1)NC(=O)NN=C1CC[C@@]2(O)C3Cc4ccc(O)c5c4C2(CCN3CC2CC2)[C@H]1O5)C(=O)O (stereo partly drawn)	3.1
CC[C@H](C)[C@H](NC(=O)[C@H](CCCN=C(N)N)NC(=O)[C@H](CCCN=C(N)N)NC(=O)[C@H](CC(C)C)NC(=O)[C@H](Cc1ccccc1)NC(=O)N/N=C1/CC[C@@]2(O)[C@H]3Cc4ccc(O)c5c4[C@@]2(CCN3C)[C@H]1O5)C(=O)OC (X1-FLRRI-OMe)	24
CC[C@H](C)[C@H](NC(=O)[C@H](CCCN=C(N)N)NC(=O)[C@H](CCCN=C(N)N)NC(=O)[C@H](CC(C)C)NC(=O)[C@H](Cc1ccccc1)NC(=O)N/N=C1/CC[C@@]2(O)[C@H]3Cc4ccc(O)c5c4[C@@]2(CCN3CC2CC2)[C@H]1O5)C(=O)OC (X2-FLRRI-OMe)	5.7
